Experimental data as given in ChEMBL document CHEMBL5614405 (J Med Chem, 2024).
Values belong to the molecule of their own block, whether it stands above or below them. Activity calls are given as the source filed them. The calls are words filed in the database; no cut-off is given here.

Tests used:
[1] = target: Rho-associated protein kinase 1 (Homo sapiens, UniProt Q13464); assay: Inhibition of ROCK1 (unknown origin) incubated for 10 mins in presence of ATP by mobility shift assay
[2] = target: Rho-associated protein kinase 2 (Homo sapiens, UniProt O75116); assay: Inhibition of ROCK2 (unknown origin) incubated for 60 mins in presence of ATP by mobility shift assay
[3] = test system: Mus musculus; assay: Anti-glaucoma activity in magnetic microbead induced occlusion C57BL/6J mouse model assessed as reduction in intraocular pressure at 441.27 uM,TOP administration on right eye measured after 1 hr by tonometric analysis; assay type: functional, organism-based
[4] = test system: Mus musculus; assay: Anti-glaucoma activity in magnetic microbead induced occlusion C57BL/6J mouse model assessed as increase in retinal ganglion cell population at 441.27 uM,TOP administrated on right eye thrice a day for 21 days by immunofluorescence based confocal microscopic analysis; assay type: functional, organism-based; conditions: time 21.0 day
[5] = Toxicity in New Zealand rabbit assessed as appearance of conjunctival congestion by measuring ocular irritation score at 0.028 % TOP administration on left eye measured after 1 day by draize eye irritation test; assay type: tissue-based, Oryctolagus cuniculus; conditions: in vivo, topical_or_ocular, 24 h
[6] = Toxicity in New Zealand rabbit assessed as appearance of conjunctival congestion by measuring ocular irritation score at 0.028 % TOP administration on left eye measured after 2 days by draize eye irritation test; assay type: tissue-based, Oryctolagus cuniculus; conditions: in vivo, topical_or_ocular, 48 h, time 2 day
[7] = Toxicity in New Zealand rabbit assessed as appearance of conjunctival congestion by measuring ocular irritation score at 0.028 % TOP administration on left eye measured after 3 days by draize eye irritation test; assay type: tissue-based, Oryctolagus cuniculus; conditions: in vivo, topical_or_ocular, 72 h, time 3 day
[8] = Toxicity in New Zealand rabbit assessed as appearance of conjunctival congestion by measuring ocular irritation score at 0.028 % TOP administration on left eye measured after 4 days by draize eye irritation test; assay type: tissue-based, Oryctolagus cuniculus; conditions: in vivo, topical_or_ocular, 96 h, time 4 day
[9] = Toxicity in New Zealand rabbit assessed as appearance of conjunctival congestion by measuring ocular irritation score at 0.028 % TOP administration on left eye measured after 5 days by draize eye irritation test; assay type: tissue-based, Oryctolagus cuniculus; conditions: in vivo, topical_or_ocular, 120 h, time 5 day
[10] = Toxicity in New Zealand rabbit assessed as appearance of conjunctival congestion by measuring ocular irritation score at 0.028 % TOP administration on left eye measured after 6 days by draize eye irritation test; assay type: tissue-based, Oryctolagus cuniculus; conditions: in vivo, topical_or_ocular, 144 h, time 6 day
[11] = Toxicity in New Zealand rabbit assessed as appearance of conjunctival congestion by measuring ocular irritation score at 0.028 % TOP administration on left eye measured after 7 days by draize eye irritation test; assay type: tissue-based, Oryctolagus cuniculus; conditions: in vivo, topical_or_ocular, 168 h, time 7 day
[12] = Toxicity in New Zealand rabbit assessed as appearance of conjunctival congestion by measuring incidence of ocular irritation at 0.028 % TOP administration on left eye measured for 5 days by draize eye irritation test; assay type: tissue-based, Oryctolagus cuniculus; conditions: in vivo, topical_or_ocular, 120 h, time 5 day
[13] = Toxicity in chicken embryo chorioallantoic membrane assessed as irritation score at 1.55 mM measured after 5 mins in presence of methyl 3-(nitrooxy)benzoate by microscopic analysis; assay type: tissue-based, Gallus gallus; conditions: in vivo, 1550 µM
[14] = test system: Oryctolagus cuniculus; assay: Anti-glaucoma activity in methylcellulose-induced acute intraocular hypertensive New Zealand rabbit model assessed as reduction in intraocular pressure at 1.55 mM,TOP administration on conjunctival sac measured upto 24 hrs relative to Netarsudil; assay type: functional, organism-based
[15] = Toxicity in chicken embryo chorioallantoic membrane assessed as irritation score at 1.55 mM measured after 5 mins by microscopic analysis relative to Netarsudil; assay type: tissue-based, Gallus gallus; conditions: in vivo, 1550 µM

Rho-associated protein kinase 2, sequence (O75116 whole entry): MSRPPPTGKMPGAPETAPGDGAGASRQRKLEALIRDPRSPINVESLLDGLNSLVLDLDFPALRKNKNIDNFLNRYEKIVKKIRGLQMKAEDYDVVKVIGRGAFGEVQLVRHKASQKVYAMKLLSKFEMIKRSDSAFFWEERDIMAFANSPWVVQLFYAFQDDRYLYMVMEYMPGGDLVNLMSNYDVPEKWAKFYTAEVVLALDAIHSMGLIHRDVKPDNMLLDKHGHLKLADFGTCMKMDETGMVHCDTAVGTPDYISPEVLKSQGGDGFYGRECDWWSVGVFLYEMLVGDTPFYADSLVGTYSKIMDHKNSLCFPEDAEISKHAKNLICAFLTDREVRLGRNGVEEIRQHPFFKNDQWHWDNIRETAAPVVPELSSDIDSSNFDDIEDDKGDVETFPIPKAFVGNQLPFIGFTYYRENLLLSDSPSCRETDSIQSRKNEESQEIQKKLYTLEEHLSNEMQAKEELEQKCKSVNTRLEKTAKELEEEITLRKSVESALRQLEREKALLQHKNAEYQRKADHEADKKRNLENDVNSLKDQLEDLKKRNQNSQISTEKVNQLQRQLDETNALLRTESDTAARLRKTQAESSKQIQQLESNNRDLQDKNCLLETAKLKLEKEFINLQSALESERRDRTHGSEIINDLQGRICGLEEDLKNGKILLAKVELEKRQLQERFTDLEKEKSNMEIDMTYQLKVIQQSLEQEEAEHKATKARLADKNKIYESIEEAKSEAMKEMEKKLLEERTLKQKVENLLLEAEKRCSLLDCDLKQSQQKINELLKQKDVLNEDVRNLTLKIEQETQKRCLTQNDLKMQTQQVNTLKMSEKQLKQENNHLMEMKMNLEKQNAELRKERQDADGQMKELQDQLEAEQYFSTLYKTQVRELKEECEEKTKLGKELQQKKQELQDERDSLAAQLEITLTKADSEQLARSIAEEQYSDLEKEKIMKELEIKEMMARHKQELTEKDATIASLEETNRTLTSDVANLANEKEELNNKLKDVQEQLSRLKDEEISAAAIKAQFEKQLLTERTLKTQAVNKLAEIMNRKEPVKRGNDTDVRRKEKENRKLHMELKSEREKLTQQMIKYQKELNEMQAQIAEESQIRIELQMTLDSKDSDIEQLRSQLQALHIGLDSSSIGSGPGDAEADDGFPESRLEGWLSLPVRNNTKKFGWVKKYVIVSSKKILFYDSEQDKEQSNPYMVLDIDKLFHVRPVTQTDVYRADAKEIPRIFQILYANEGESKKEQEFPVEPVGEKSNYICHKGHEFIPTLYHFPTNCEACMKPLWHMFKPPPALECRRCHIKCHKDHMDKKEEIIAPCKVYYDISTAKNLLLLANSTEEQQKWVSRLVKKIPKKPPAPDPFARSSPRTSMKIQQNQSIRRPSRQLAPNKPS
Rho-associated protein kinase 1, sequence (Q13464 whole entry): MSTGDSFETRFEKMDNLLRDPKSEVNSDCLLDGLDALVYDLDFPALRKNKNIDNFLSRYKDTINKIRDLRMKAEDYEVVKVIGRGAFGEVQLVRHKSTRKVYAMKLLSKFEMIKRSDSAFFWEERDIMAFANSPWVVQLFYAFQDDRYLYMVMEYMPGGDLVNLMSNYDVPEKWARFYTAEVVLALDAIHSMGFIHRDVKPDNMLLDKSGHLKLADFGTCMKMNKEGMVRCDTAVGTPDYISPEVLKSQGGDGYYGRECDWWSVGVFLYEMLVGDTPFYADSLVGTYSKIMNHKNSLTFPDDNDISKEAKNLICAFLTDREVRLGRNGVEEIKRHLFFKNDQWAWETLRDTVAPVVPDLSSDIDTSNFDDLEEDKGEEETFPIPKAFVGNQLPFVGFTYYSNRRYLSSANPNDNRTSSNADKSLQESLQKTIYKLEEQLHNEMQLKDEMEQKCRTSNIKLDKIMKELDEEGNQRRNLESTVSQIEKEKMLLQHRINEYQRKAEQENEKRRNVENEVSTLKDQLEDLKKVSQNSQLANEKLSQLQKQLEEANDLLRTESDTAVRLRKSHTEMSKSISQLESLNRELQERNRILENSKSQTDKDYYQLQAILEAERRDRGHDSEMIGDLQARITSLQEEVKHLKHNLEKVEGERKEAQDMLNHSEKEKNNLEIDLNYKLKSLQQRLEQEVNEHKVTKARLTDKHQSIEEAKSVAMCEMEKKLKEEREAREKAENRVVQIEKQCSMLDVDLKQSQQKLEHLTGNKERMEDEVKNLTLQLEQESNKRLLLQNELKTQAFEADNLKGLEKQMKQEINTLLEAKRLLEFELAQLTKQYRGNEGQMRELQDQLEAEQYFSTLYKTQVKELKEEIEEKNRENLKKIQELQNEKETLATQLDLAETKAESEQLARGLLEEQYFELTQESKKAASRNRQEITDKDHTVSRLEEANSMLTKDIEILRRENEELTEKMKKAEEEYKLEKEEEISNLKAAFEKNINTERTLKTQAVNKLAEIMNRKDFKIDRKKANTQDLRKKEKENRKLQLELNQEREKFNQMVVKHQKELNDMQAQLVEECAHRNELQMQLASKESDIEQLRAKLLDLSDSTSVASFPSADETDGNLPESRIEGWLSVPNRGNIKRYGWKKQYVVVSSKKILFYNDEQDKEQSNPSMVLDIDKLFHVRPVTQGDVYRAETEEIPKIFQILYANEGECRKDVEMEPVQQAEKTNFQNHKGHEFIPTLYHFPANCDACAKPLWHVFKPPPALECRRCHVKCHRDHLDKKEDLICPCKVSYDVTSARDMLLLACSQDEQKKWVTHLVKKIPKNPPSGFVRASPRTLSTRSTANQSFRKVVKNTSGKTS

IC50 [1]: 29 nM
IC50 [2]: 5.15 nM
SMILES: NCC(C(=O)Nc1ccc2cnccc2c1)c1ccc(COC(=O)CCCCO[N+](=O)[O-])cc1 (stereo not drawn)

IC50 [1]: 35.4 nM
IC50 [2]: 25.3 nM
SMILES: NC[C@H](C(=O)Nc1ccc2cnccc2c1)c1ccc(COC(=O)c2cccc(CO[N+](=O)[O-])c2)cc1

SMILES: Cc1ccc(C(=O)OCc2ccc([C@@H](CN)C(=O)Nc3ccc4cnccc4c3)cc2)c(C)c1
Activity [3]: Active
Activity [4]: Active
Activity [5]: 3.33
Activity [6]: 3.67
Activity [7]: 3
Activity [8]: 3.67
Activity [9]: 2.33
Activity [10]: 1.33
Activity [11]: 1
Activity [12]: 100%
Activity [13]: Non-Toxic

IC50 [1]: 22.5 nM
IC50 [2]: 5.27 nM
SMILES: NCC(C(=O)Nc1ccc2cnccc2c1)c1ccc(COC(=O)CCCCCO[N+](=O)[O-])cc1 (stereo not drawn)

IC50 [1]: 4.94 nM
IC50 [2]: 2.51 nM
SMILES: CS(=O)(=O)O.CS(=O)(=O)O.NCC(C(=O)Nc1ccc2cnccc2c1)c1ccc(COC(=O)CCCO[N+](=O)[O-])cc1 (stereo not drawn)
Activity [14]: Active
Activity [15]: Toxic

IC50 [1]: 28.6 nM
IC50 [2]: 8.56 nM
SMILES: NCC(C(=O)Nc1ccc2cnccc2c1)c1ccc(COC(=O)CCC(=O)O[C@@H]2CO[C@@H]3[C@H]2OC[C@@H]3O[N+](=O)[O-])cc1 (stereo partly drawn)
